± gives the standard deviation of the reports.
Compound | glass transition temperature [°C]
*C(=O)c1ccc2c(c1)C(=O)N(c1cccc(Oc3cccc(N4C(=O)c5ccc(*)cc5C4=O)c3)c1)C2=O (repeat unit) | 221.00
*Oc1cccc2c1C(=O)N(c1cccc(S(=O)(=O)c3cccc(N4C(=O)c5cccc(*)c5C4=O)c3)c1)C2=O (repeat unit) | 241.00
*Oc1cccc(C(C)(C)c2ccc(Oc3cccc4c3C(=O)N(c3cccc(N5C(=O)c6cccc(*)c6C5=O)c3)C4=O)cc2)c1 (repeat unit) | 236.00
*Oc1cccc(Oc2ccc(Oc3ccc4c(c3)C(=O)N(c3ccc(Oc5ccc(N6C(=O)c7ccc(*)cc7C6=O)cc5)cc3)C4=O)cc2)c1 (repeat unit) | 215.00
*c1ccc(-c2ccc(N3C(=O)c4cc5c(cc4C3=O)C(c3ccccc3)(C(F)(F)F)c3cc4c(cc3O5)C(=O)N(*)C4=O)cc2C(F)(F)F)c(C(F)(F)F)c1 (repeat unit) | 400.00
*c1ccc2c(c1)C(=O)N(c1cccc(S(=O)(=O)c3cccc(N4C(=O)c5ccc(*)cc5C4=O)c3)c1)C2=O (repeat unit) | 260.00
*c1cc(N2C(=O)c3ccc(-c4ccc5c(c4)C(=O)N(*)C5=O)cc3C2=O)ccc1OCC(F)(F)C(F)(F)C(F)(F)C(F)(F)C(F)(F)C(F)(F)F (repeat unit) | 262.00
*C(=O)Oc1ccc2ccccc2c1-c1c(OC(=O)c2ccc3c(c2)C(=O)N(c2ccc(C(=O)Oc4ccc5ccccc5c4-c4c(OC(=O)c5ccc(N6C(=O)c7ccc(*)cc7C6=O)cc5)ccc5ccccc45)cc2)C3=O)ccc2ccccc12 (repeat unit) | 266.50
*Oc1ccc(C(C)(C)c2ccc(Cc3ccc4c(c3)C(=O)N(c3cccc(N5C(=O)c6ccc(*)cc6C5=O)c3)C4=O)cc2)cc1 (repeat unit) | 215.00
*c1cccc2c1C(=O)N(c1ccc(Oc3ccc(N4C(=O)c5cccc(*)c5C4=O)cc3)cc1)C2=O (repeat unit) | 306.00 ± 26
*Oc1cccc(S(=O)(=O)c2ccc(Oc3cccc4c3C(=O)N(c3cccc(N5C(=O)c6cccc(*)c6C5=O)c3)C4=O)cc2)c1 (repeat unit) | 266.00
*c1ccc2c(c1)C(=O)N(c1ccc(-c3ccc(N4C(=O)c5ccc(C(*)(C(F)(F)F)C(F)(F)F)cc5C4=O)cc3-c3ccccc3C(F)(F)F)c(-c3ccccc3C(F)(F)F)c1)C2=O (repeat unit) | 289.00
*c1ccc2c(c1)C(=O)N(c1ccc(N3C(=O)c4ccc(C(*)(C(F)(F)F)C(F)(F)F)cc4C3=O)cc1F)C2=O (repeat unit) | 370.00
*C(=O)c1ccc2c(c1)C(=O)N(c1cccc(C(=O)c3cccc(N4C(=O)c5ccc(*)cc5C4=O)c3)c1)C2=O (repeat unit) [Polyimide] | 220 ± 130
*Oc1c(F)c(F)c(Oc2c(F)c(F)c3c(c2F)C(=O)N(c2c(F)c(F)c(Oc4c(F)c(F)c(N5C(=O)c6c(F)c(*)c(F)c(F)c6C5=O)c(F)c4F)c(F)c2F)C3=O)c(F)c1F (repeat unit) | 300.00
*Oc1cccc(C(C)(C)c2ccc(Oc3ccc4c(c3)C(=O)N(c3cccc(N5C(=O)c6ccc(*)cc6C5=O)c3)C4=O)cc2)c1 (repeat unit) | 215.00
*Oc1cccc(Sc2ccc(Oc3cccc4c3C(=O)N(c3ccc(Oc5ccc(N6C(=O)c7cccc(*)c7C6=O)cc5)cc3)C4=O)cc2)c1 (repeat unit) | 234.00
*c1ccc(P(=O)(c2ccccc2)c2ccc(N3C(=O)c4ccc(-c5ccc6c(c5)C(=O)N(*)C6=O)cc4C3=O)cc2)cc1 (repeat unit) | 371.00
*Oc1ccc2c(c1)C(=O)N(c1cccc(Oc3ccc(P(=O)(c4ccccc4)c4ccc(Oc5ccc(N6C(=O)c7ccc(*)cc7C6=O)cc5)cc4)cc3)c1)C2=O (repeat unit) | 240.00
*c1ccc2c(c1)C(=O)N(c1ccc(Cc3ccc(N4C(=O)c5ccc(*)cc5C4=O)c(C)c3C)c(C)c1C)C2=O (repeat unit) | 297.00
*Oc1cccc(Sc2ccc(Oc3ccc4c(c3)C(=O)N(c3ccc(Oc5ccc(N6C(=O)c7ccc(*)cc7C6=O)cc5)cc3)C4=O)cc2)c1 (repeat unit) | 212.00
*C(=O)c1ccc2c(c1)C(=O)N(c1cc(N3C(=O)c4ccc(*)cc4C3=O)ccc1OCC(F)(F)C(F)(F)C(F)(F)C(F)(F)C(F)(F)C(F)(F)C(F)(F)C(F)(F)C(F)(F)C(F)(F)F)C2=O (repeat unit) | 194.00
*c1ccc2c(c1)C(=O)N(c1ccc(N3C(=O)c4ccc(C(*)(C(F)(F)F)C(F)(F)F)cc4C3=O)cc1C(F)(F)F)C2=O (repeat unit) | 366.00

Compound | glass transition temperature [°C]
*C(=O)c1ccc2c(c1)C(=O)N(c1c(CC)cc(Cc3cc(CC)c(N4C(=O)c5ccc(*)cc5C4=O)c(CC)c3Cl)c(Cl)c1CC)C2=O (repeat unit) | 300.00
*Oc1ccc2c(c1)C(=O)N(c1cccc(Oc3ccc(C(=O)c4ccc(Oc5cccc(N6C(=O)c7cccc(*)c7C6=O)c5)cc4)cc3)c1)C2=O (repeat unit) | 205.50 ± 2.1
*c1ccc2c(c1)C(=O)N(c1ccc(OCC(F)(F)C(F)(F)C(F)(F)F)c(N3C(=O)c4ccc(C(*)(C(F)(F)F)C(F)(F)F)cc4C3=O)c1)C2=O (repeat unit) | 266.00
*C(=O)c1ccc2c(c1)C(=O)N(c1ccc(Cc3ccccc3N3C(=O)c4ccc(*)cc4C3=O)cc1)C2=O (repeat unit) | 290.00
*C(=O)c1ccc2c(c1)C(=O)N(c1ccc(Oc3ccccc3N3C(=O)c4ccc(*)cc4C3=O)cc1)C2=O (repeat unit) | 287.00
*Oc1ccc2c(c1)C(=O)N(c1ccc(C(=O)c3ccc(N4C(=O)c5ccc(*)cc5C4=O)cc3)cc1)C2=O (repeat unit) | 274.00
*c1ccc(C(=O)c2ccccc2-n2c(=O)c3cc4c(=O)n(*)c(=O)c4cc3c2=O)cc1 (repeat unit) | 321.00
*C(=O)c1ccc2c(c1)C(=O)N(c1cccc(C(=O)c3ccccc3N3C(=O)c4ccc(*)cc4C3=O)c1)C2=O (repeat unit) | 259.00
*Oc1cccc(S(=O)(=O)c2ccc(Oc3ccc4c(c3)C(=O)N(c3cccc(N5C(=O)c6ccc(*)cc6C5=O)c3)C4=O)cc2)c1 (repeat unit) | 265.00
*c1ccc(Cc2ccc(-n3c(=O)c4cc5c(=O)n(*)c(=O)c5cc4c3=O)c(C)c2)cc1C (repeat unit) | 274.00
*Oc1ccc(Oc2ccc(Oc3cccc4c3C(=O)N(CCCCCCCCN3C(=O)c5cccc(*)c5C3=O)C4=O)cc2)cc1 (repeat unit) | 128.00
*c1ccc2c(c1)C(=O)N(c1ccc(-c3ccc(N4C(=O)c5ccc(C(*)(C(F)(F)F)C(F)(F)F)cc5C4=O)cc3Cl)c(Cl)c1)C2=O (repeat unit) | 336.00
*Oc1cccc(Sc2ccc(Oc3cccc4c3C(=O)N(c3cccc(N5C(=O)c6cccc(*)c6C5=O)c3)C4=O)cc2)c1 (repeat unit) | 231.00
*c1ccc2c(c1)C(=O)N(c1c(F)cc(Oc3ccc(C(c4ccc(Oc5cc(F)c(N6C(=O)c7ccc(C(*)(C(F)(F)F)C(F)(F)F)cc7C6=O)c(F)c5)cc4)(C(F)(F)F)C(F)(F)F)cc3)cc1F)C2=O (repeat unit) | 224.00
*C(=O)c1ccc2c(c1)C(=O)N(c1cccc(Oc3ccccc3N3C(=O)c4ccc(*)cc4C3=O)c1)C2=O (repeat unit) | 259.00
*Sc1ccc2c(c1)C(=O)N(c1ccc(Oc3ccc(Oc4ccc(N5C(=O)c6cccc(*)c6C5=O)cc4)cc3)cc1)C2=O (repeat unit) | 238.00 ± 5.7
*Oc1c(F)c(F)c(Oc2c(F)c(F)c3c(c2F)C(=O)N(c2c(F)c(F)c(F)c(N4C(=O)c5c(F)c(*)c(F)c(F)c5C4=O)c2F)C3=O)c(F)c1F (repeat unit) | 309.00
*Oc1cccc(C(C)(C)c2ccc(Oc3ccc4c(c3)C(=O)N(c3ccc(Oc5ccc(N6C(=O)c7ccc(*)cc7C6=O)cc5)cc3)C4=O)cc2)c1 (repeat unit) | 223.00
*Oc1cccc(S(=O)(=O)c2ccc(Oc3cccc4c3C(=O)N(c3ccc(Oc5ccc(N6C(=O)c7cccc(*)c7C6=O)cc5)cc3)C4=O)cc2)c1 (repeat unit) | 267.00
*Oc1cccc2c1C(=O)N(c1cccc(Oc3ccc(C(=O)c4ccc(Oc5cccc(N6C(=O)c7cccc(*)c7C6=O)c5)cc4)cc3)c1)C2=O (repeat unit) | 198.00
*Oc1ccc(C(c2ccc(Oc3cccc4c3C(=O)N(c3ccc(Oc5ccc(N6C(=O)c7cccc(*)c7C6=O)cc5)cc3)C4=O)cc2)(C(F)(F)F)C(F)(F)F)cc1 (repeat unit) | 226.00
*c1ccc(Oc2ccccc2N2C(=O)c3cc4c(cc3C2=O)C(=O)N(*)C4)cc1 (repeat unit) | 386.00
*Oc1cccc(C(=O)c2ccc(Oc3ccc4c(c3)C(=O)N(c3ccc(Oc5ccc(N6C(=O)c7ccc(*)cc7C6=O)cc5)cc3)C4=O)cc2)c1 (repeat unit) | 210.00

Source: the PolyMetriX glass transition set
